The results in this text go back to patent US20220389008A1, “4-QUINOLINONE ANTIBACTERIAL COMPOUNDS” (Janssen Sciences Ireland Unlimited Company, priority 2019, published 2022).

Where “and” joins values, the source holds several entries; their conditions need not be identical. Identical values can stand only once. Like-named read-outs stand apart in the source and are kept apart here.

In data set [1] the test system is M. tuberculosis (strain H37Rv and H37Ra). Briefly: Time kill kinetics assay (Test 3). The data set is classed as cell-based, Mycobacterium tuberculosis. As for the experimental part:
Time Kill Kinetics Assays: Test 3
Bactericidal or bacteriostatic activity of the compounds can be determined in a time kill kinetic assay using the broth dilution method. In this assay, the starting inoculum of M. tuberculosis (strain H37Rv and H37Ra) is 10^6 CFU/ml in Middlebrook (1×) 7H9 broth. The test compounds (cyt bd inhibitors) are tested in combination with a cyt bc inhibitor (for example Q203 or Compound X) at the concentration ranging from 10-30 μM to 0.9-0.3 μM respectively. Tubes receiving no antibacterial agent constitute the culture growth control. The tubes containing the microorganism and the test compounds are incubated at 37° C. After 0, 1, 4, 7, 14 and 21 days of incubation samples are removed for determination of viable counts by serial dilution (10^0 to 10^−6) in Middlebrook 7H9 medium and plating (100 μl) on Middlebrook 7H11 agar. The plates are incubated at 37° C. for 21 days and the number of colonies are determined. Killing curves can be constructed by plotting the log10 CFU per ml versus time. A bactericidal effect of a cytochrome be and cytochrome bd inhibitor (either alone or in combination) is commonly defined as 2-log10 decrease (decrease in CFU per ml) compared to Day 0. The potential carryover effect of the drugs is limited by using 0.4% charcoal in the agar plates, and by serial dilutions and counting the colonies at highest dilution possible used for plating.
Compounds of the examples are/were tested in Test 3 (the kill kinetics) described above, obtaining results expressed as a log reduction in CFUs per ml as compared to Day 0.

Data set [2] has as its system Mycobacterium tuberculosis strain H37Rv ΔctaE-ΔqcrCAB. Kind of data set: microbe, parasite or virus in culture. It is filed as cell-based. The conditions noted are these: 240 h.
Data set [3] deals with Mitochondrial toxicity (Glu/Gal). Kind of data set: Mitochondrial toxicity (Glu/Gal) assay. More on the design: key to Score: “negative” means that in the test, it was found to have low mitotoxicity (and hence no mitotoxicity alerts); “positive” means that there were some mitotoxicity alerts; “inconclusive” means that no accurate conclusion could be drawn. The data set is classed as cell-based. The conditions noted are these: for Score: mitotoxicity score; for Δ IC50,glu/IC50,gal: ratio glu/gal.

The next data set has as its system rCaCh. Kind of data set: CVS / cardio tox rCaCh. The data set is classed as binding, rat.
In another data set the test system is rNaCh. Kind of data set: CVS / cardio tox rNaCh. The conditions noted are these: read-out: Cardio tox rNaCH (IC50). It is filed as binding, rat.
The next data set addresses hERG (Homo sapiens, UniProt Q12809). Kind of data set: CVS / cardio tox hERG (DOF). The data set is classed as binding. The conditions noted are these: DOF; read-out: Cardio tox hERG(DOF) (IC50).
Data set [4] deals with Mycobacterium tuberculosis (strain H37Ra), cyt bd. Conditions: Mtb H37Ra; for (i) % OCR after cyt bd inhibitor: test compound 10 μM added after Compound X 0.9 μM; for (ii) % OCR after cccp: test compound 10 μM after Compound X 0.9 μM, then CCCP 1 μM.
Where [5] appears, read: Compound X alone 0.17 μg/ml, Log Day 0 6.66.
[6] abbreviates: galactose medium, read-out: IC50, gal.
Setting [7] is: glucose medium, read-out: IC50, glu.
Where [8] appears, read: Q203 alone 0.168 μg/ml, Log Day 0 5.56.
The mark [9] stands for this setting: compound alone 12 μg/ml, Log Day 0 5.56 (Q203 experiment).
Setting [10] is: compound alone 12 μg/ml, Log Day 0 6.66.

Sequence of hERG (Q12809 whole entry): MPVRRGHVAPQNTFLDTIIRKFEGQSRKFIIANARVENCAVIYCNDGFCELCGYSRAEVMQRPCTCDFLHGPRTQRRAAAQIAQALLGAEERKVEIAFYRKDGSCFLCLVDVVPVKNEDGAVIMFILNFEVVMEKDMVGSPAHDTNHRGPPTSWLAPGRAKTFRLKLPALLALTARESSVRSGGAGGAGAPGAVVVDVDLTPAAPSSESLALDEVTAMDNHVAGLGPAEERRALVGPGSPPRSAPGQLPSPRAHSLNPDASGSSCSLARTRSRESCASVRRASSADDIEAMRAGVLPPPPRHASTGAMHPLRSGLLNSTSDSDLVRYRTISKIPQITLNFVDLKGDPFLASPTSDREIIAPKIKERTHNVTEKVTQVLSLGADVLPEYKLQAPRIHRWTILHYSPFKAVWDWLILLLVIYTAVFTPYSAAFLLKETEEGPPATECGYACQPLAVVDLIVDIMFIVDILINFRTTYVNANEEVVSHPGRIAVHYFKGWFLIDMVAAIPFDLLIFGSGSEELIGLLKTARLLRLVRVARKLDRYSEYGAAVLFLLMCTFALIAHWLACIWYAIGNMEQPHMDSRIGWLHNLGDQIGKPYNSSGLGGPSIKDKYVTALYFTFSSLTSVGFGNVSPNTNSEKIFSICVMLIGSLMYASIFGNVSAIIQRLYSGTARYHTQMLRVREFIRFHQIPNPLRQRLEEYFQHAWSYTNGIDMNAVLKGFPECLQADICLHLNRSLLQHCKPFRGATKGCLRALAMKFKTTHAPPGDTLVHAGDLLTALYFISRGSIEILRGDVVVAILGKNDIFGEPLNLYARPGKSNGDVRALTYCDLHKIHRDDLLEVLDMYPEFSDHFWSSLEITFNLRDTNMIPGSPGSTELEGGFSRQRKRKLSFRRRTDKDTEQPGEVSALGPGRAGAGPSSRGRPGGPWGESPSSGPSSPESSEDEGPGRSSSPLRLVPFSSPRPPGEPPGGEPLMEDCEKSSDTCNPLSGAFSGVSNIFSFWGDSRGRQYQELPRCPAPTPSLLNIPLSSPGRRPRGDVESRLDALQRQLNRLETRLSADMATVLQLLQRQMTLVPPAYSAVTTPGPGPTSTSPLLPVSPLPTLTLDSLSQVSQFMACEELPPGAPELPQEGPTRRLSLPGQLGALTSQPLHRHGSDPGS

Turning to `CCc1nc2ccc(Cl)cn2c1C(=O)NCc1ccc(C2CC3(C2)CN(S(=O)(=O)C(F)(F)F)C3)cc1` [Compound X, 6-chloro-2-ethyl -N-({4-[2-(trifluoromethanesulfonyl)-2-azaspiro[3.3]heptan-6-yl]phenyl}methyl)imidazo[1,2-a]pyridine-3-carboxamide, reference compound], in data set [1] (setting [5]), the “Log Day 21” value stood at 5.93 log CFUs per ml and the “Log Day 21-Log Day 0” value is on record as −0.73 log CFUs per ml.

On to `Cc1c(-c2nc3ccc(F)cn3n2)[nH]c2ccccc2c1=O` [Compound 33], for which the IC50 is greater than 100 µM in data set [2]; 100 µM in data set [3] (setting [6]); 100 µM in data set [3] (setting [7]); greater than 10 µM in the data set on rNaCh; greater than 10 µM on hERG. For the same compound, the Score result in data set [3] is reported as “negative”. Besides, the “Δ IC50,glu/IC50,gal” value in data set [3] is “[x]0”. Besides, the “Cardio tox rCaCh IC50 (µM)” value in the data set with rCaCh is given as >10, >10, >10. For the same compound, in data set [4], the “(i) % OCR after cyt bd inhibitor” value worked out at 61.2%. Also, in data set [4], the “(ii) % OCR after cccp” value came to 123.6%.

In the case of `Cc1c(-c2nc3ccc(-c4cccc(F)c4)cn3n2)[nH]c2ccccc2c1=O` [Compound 12], the half-maximal inhibitory concentration (IC50) was 0.885 µM in data set [2]; 100 µM in data set [3] (setting [6]); 100 µM in data set [3] (setting [7]); greater than 10 µM in the data set on rNaCh; greater than 3.02 µM on hERG. Moreover, the Score entry in data set [3] is “negative”. Also, the “Δ IC50,glu/IC50,gal” value in data set [3] is “[x]0”. Besides, in the data set on rCaCh, the “Cardio tox rCaCh IC50 (µM)” value is reported as greater than 10. For the same compound, the “(i) % OCR after cyt bd inhibitor” value in data set [4] came out at 62.09%. Further, the “(ii) % OCR after cccp” value in data set [4] was determined as 79.37%.

As to `Cc1c(-c2nc3ccc(Br)cn3n2)[nH]c2ccccc2c1=O` [Compound 55], the IC50 in data set [2] was 36.1 µM; in data set [3] (setting [6]) it was 200 µM and 100 µM; in data set [3] (setting [7]) it was 200 µM and 100 µM; with rNaCh, greater than 10 µM; on hERG, greater than 10 µM. Also, in data set [3], the Score entry is reported as “negative”. Also, in data set [3], the “Δ IC50,glu/IC50,gal” value is “[x]0;[x]0”. In addition, in the data set on rCaCh, the “Cardio tox rCaCh IC50 (µM)” value is on record as >10, >10, >10. Besides, the “(i) % OCR after cyt bd inhibitor” value in data set [4] was found to be 109.2%. Moreover, in data set [4], the “(ii) % OCR after cccp” value is listed as 148.3%.

Regarding `Cc1c(-c2nc3ccc(-c4ccc(OC(F)(F)F)nc4)cn3n2)[nH]c2ccccc2c1=O` [Compound 26], the IC50 is 7.69 µM in data set [2]; 9.59 µM in data set [3] (setting [6]); 13.3 µM in data set [3] (setting [7]); greater than 10 µM with rNaCh; greater than 10 µM on hERG. The Score entry in data set [3] is given as “negative”. Also, the “Δ IC50,glu/IC50,gal” value in data set [3] is “[x]1.39”. In the data set with rCaCh, the “Cardio tox rCaCh IC50 (µM)” value was >10, >10, >10. The “(i) % OCR after cyt bd inhibitor” value in data set [4] is given as 71%. In addition, the “(ii) % OCR after cccp” value in data set [4] amounted to 116.7%.

For `Cc1c(-c2cn3cc(Oc4ccc(OC(F)(F)F)cc4)ccc3n2)[nH]c2ccccc2c1=O` [Compound 44], the IC50 in data set [2] was 9.75 µM; in data set [3] (setting [6]), 58.5 µM; in data set [3] (setting [7]) it was 47.8 µM; in the data set on rNaCh, 1.2 µM; at hERG, 1.5 µM. In addition, the Score result in data set [3] was “negative”. Also, the “Δ IC50,glu/IC50,gal” value in data set [3] is 0.8. Also, the “Cardio tox rCaCh IC50 (µM)” value in the data set with rCaCh is listed as 3.8. The “(i) % OCR after cyt bd inhibitor” value in data set [4] is 76%. Besides, the “(ii) % OCR after cccp” value in data set [4] worked out at 138.6%.

Take `Cc1c(-c2cc3ccc(-c4ccc(OC(F)(F)F)cc4)cn3c2)[nH]c2ccccc2c1=O` [Compound 22]: the IC50 is 3.75 µM in data set [2]; 9.9 µM in data set [3] (setting [6]); 140 µM in data set [3] (setting [7]); 6.9 µM with rNaCh; greater than 10 µM on hERG. Also, in data set [3], the Score result was “positive”. For the same compound, in data set [3], the “Δ IC50,glu/IC50,gal” value is given as greater than 13.3. In the data set on rCaCh, the “Cardio tox rCaCh IC50 (µM)” value is given as greater than 10. The “(i) % OCR after cyt bd inhibitor” value in data set [4] was determined as 82.7%. For the same compound, the “(ii) % OCR after cccp” value in data set [4] is recorded as 109.8%.

On to `CCc1nc2ccc(Cl)cn2c1C(=O)NCc1ccc(N2CCC(c3ccc(OC(F)(F)F)cc3)CC2)cc1` [Compound Q203, 6-chloro-2-ethyl-N-(4-(4-(4-(trifluoromethoxy)phenyl)piperidin-1-yl)benzyl)imidazo[1,2-a]pyridine-3-carboxamide, reference compound], for which, in data set [1] (setting [8]), the “Log Day 21” value is given as 2.59 log CFUs per ml and the “Log Day 21-Log Day 0” value is recorded as −2.97 log CFUs per ml.

Take `Cc1c(-c2nc3ccc(-c4nc(C(F)(F)F)cs4)cn3n2)[nH]c2ccccc2c1=O` [Compound 18]: the IC50 in data set [2] was 1.88 µM; in data set [3] (setting [6]), 15.8 µM; in data set [3] (setting [7]), 23.4 µM; in the data set with rNaCh, 1.51 µM; on hERG, greater than 10 µM. Further, the Score entry in data set [3] was “negative”. Besides, in data set [3], the “Δ IC50,glu/IC50,gal” value is “[x]1.48”. Besides, the “Cardio tox rCaCh IC50 (µM)” value with rCaCh is given as greater than 10. Also, the “(i) % OCR after cyt bd inhibitor” value in data set [4] came to 76.01%. In addition, in data set [4], the “(ii) % OCR after cccp” value stood at 98.7%.

For `Cc1c(-c2cn3ccc(Cc4ccc(OC(F)(F)F)cc4)cc3n2)[nH]c2ccccc2c1=O` [Compound 52], the half-maximal inhibitory concentration (IC50) in data set [2] is greater than 100 µM; in data set [3] (setting [6]), 108 µM; in data set [3] (setting [7]), 134 µM; with rNaCh it was 7.4 µM; on hERG it was greater than 10 µM. Also, the Score entry in data set [3] is given as “negative”. Also, the “Δ IC50,glu/IC50,gal” value in data set [3] was 1.2. Further, in the data set on rCaCh, the “Cardio tox rCaCh IC50 (µM)” value is roughly 1.9. Besides, the “(i) % OCR after cyt bd inhibitor” value in data set [4] is listed as 82.2%. Further, the “(ii) % OCR after cccp” value in data set [4] stood at 148.1%.

Take `Cc1c(-c2cc3cc(-c4ccc(OC(F)(F)F)cc4)ccn3c2)[nH]c2ccccc2c1=O` [Compound 25]: the IC50 in data set [2] is 3.09 µM; in data set [3] (setting [6]), 9.9 µM; in data set [3] (setting [7]), 200 µM; in the data set on rNaCh it was greater than 10 µM; on hERG, greater than 10 µM. In addition, the Score entry in data set [3] was “positive”. In addition, the “Δ IC50,glu/IC50,gal” value in data set [3] is greater than 20.2. Also, the “Cardio tox rCaCh IC50 (µM)” value in the data set with rCaCh is listed as >10, >10, >10. The “(i) % OCR after cyt bd inhibitor” value in data set [4] is given as 65.2%. In addition, in data set [4], the “(ii) % OCR after cccp” value worked out at 114.3%.

Take `Cc1c(-c2nc3cc(-c4ccc(OC(F)(F)F)cc4)ccn3n2)[nH]c2ccccc2c1=O` [Compound 2]: in data set [1] (setting [9]), the “Log Day 21” value is on record as 8.69 log CFUs per ml and the “Log Day 21-Log Day 0” value is “+3.13 log CFUs per ml”. Moreover, the 50% inhibitory concentration (IC50) in data set [2] is 1.33 µM. In data set [3] (setting [6]), the concentration for half-maximal inhibition (IC50) worked out at 100 µM. In addition, the IC50 in data set [3] (setting [7]) was found to be 100 µM. Moreover, in data set [3], the Score entry is reported as “negative” and the “Δ IC50,glu/IC50,gal” value was “[x]0”. Moreover, in data set [4], the “(i) % OCR after cyt bd inhibitor” value came out at 24.8% and the “(ii) % OCR after cccp” value is 38.3%.

As to `Cc1c(-c2nc3ccc(-c4cccc(OC(F)(F)F)c4)cn3n2)[nH]c2ccccc2c1=O` [Compound 7], in data set [1] (setting [10]), the “Log Day 21” value came out at 9.13 log CFUs per ml and the “Log Day 21-Log Day 0” value was “+2.47 log CFUs per ml”. The compound further showed a half-inhibitory concentration (IC50) in data set [2] of 1.41 µM. Further, the IC50 in data set [3] (setting [6]) amounted to 20 µM. For the same compound, in data set [3] (setting [7]), the IC50 was determined as 20 µM. For the same compound, in data set [3], the Score result was “negative” and the “Δ IC50,glu/IC50,gal” value was “[x]0”. Besides, in data set [4], the “(i) % OCR after cyt bd inhibitor” value worked out at 36.5% and the “(ii) % OCR after cccp” value is recorded as 54.6%.
